Data on two compounds can be found in publication PMC4188773 (Cell calcium, 2014).

The structures appear in SMILES notation. Several values for one entry are separate records, joined by “and”; a condition that tells them apart may be missing. Equal values may be shown once. Entries after “also recorded” stand apart in the source; their conditions may differ.

The target in data set [1] is T1, mouse eugenol OR (mOR-EG) (Mus musculus, UniProt Q920P2).
T1 sequence (Q920P2 1-313): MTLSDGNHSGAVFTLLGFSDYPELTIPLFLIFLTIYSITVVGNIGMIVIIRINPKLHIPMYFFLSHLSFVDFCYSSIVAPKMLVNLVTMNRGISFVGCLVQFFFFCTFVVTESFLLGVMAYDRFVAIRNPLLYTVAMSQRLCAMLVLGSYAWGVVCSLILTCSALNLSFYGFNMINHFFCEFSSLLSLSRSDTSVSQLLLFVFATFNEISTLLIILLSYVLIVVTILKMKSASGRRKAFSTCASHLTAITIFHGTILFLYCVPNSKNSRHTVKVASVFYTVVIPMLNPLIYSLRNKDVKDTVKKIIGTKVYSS
Briefly: dual read-out assay, mOR-EG/PLC and mOR-EG/AC responses compared. Type of data set: cell-based.

In data set [2] the test system is mOR-EG. Conditions: incubation at least 15 min; ref [22]; cited from earlier work.
The conditions of data set [3]: pH7; source not stated; cited from earlier work.
Data set [4] addresses T1, mouse eugenol OR (mOR-EG). Put plainly: mOR-EG/AC Ca2+ imaging: mOR-EG + Gαolf + CNGC-camp in HEK293T cells. Type of data set: cell-based.
Data set [5] has as its target T1, mouse eugenol OR (mOR-EG). Put plainly: mOR-EG/PLC Ca2+ imaging: mOR-EG + Gα15 in HEK293T cells. Type of data set: cell-based.
Data set [6] has as its target T1, mouse eugenol OR (mOR-EG). Briefly: mOR-EG/PLC Ca2+ response in MMDD1 macula densa cells. Type of data set: cell-based. Conditions: range and mean.
Data set [7] concerns HEK293T cells. Put plainly: control HEK293T cells lacking components of the read-out. It counts as cell-based.
In data set [8] the test system is AgOR65+AgOrco. Briefly: Ca2+ response of HEK293T cells expressing mosquito OR AgOR65+AgOrco. Conditions: 1μM, 5-s stimulation. It counts as cell-based, A. gambiae.
The target of data set [9] is T1, mouse eugenol OR (mOR-EG). Type of data set: cell-based. Conditions: up to 1 mM.
The mark [10] stands for this setting: 100μM, range over cells and mean±SEM.
[11] abbreviates: cumulative concentration-dependence.

Turning to `C/C=C/c1ccc(OC)c(OC)c1` [methyl isoeugenol], the “antagonism of eugenol-evoked Ca2+ response” value in data set [1] (1mM with 100 μM eugenol, both mOR-EG/Gα15 and mOR-EG/Gαs(olf) cells) is “completely eliminated Ca^2+ response; also recorded: potent antagonist that inhibits eugenol activation of both the mOR-EG/PLC and mOR-EG/AC responses”. The “AC-/PLC- mediated Ca2+ response (result in words)” value in data set [1] (both read-outs, up to 1-5 mM) is given as “failed to activate any response; also recorded: did not evoke any appreciable Ca^2+ signal; also recorded: does not activate either pathway; also recorded: non agonist, antagonist”. In data set [1] (data not shown), the “response to prolonged application” value is given as “did not evoke any measurable response”. The “agonist activity in cAMP-dependent Cre reporter assay” value in [2] was “strong agonist”. Also, the solubility in [3] was 3.6/3.05 mmol/l.

On to `C=CCc1ccc(O)c(OC)c1` [eugenol], for which the EC50 (as a rule, the concentration that produces a half-maximal response) in [4] stood at 53 ± 11 µM. In addition, in data set [4] (setting [10]), the “Tdecay, mOR-EG/AC response” value is 102 ± 11 s and 101.9 ± 10.9 s; the “Tpeak, mOR-EG/AC response” value is 76 ± 6 s and 75.9 ± 6.1 s; the “Trise, mOR-EG/AC response” value was 32 ± 3 s and 32.2 ± 3.0 s. In addition, the “Ca2+ response on removal of extracellular Ca2+, mOR-EG/Gαs(olf) cells” value in [4] (1mM) was “completely abolished the response”. Besides, in data set [4] (5mM), the “Tdecay, mOR-EG/AC response” value was determined as 125.1 ± 4.9 s; the “Tpeak, mOR-EG/AC response” value amounted to 90.5 ± 2.9 s; the “Trise, mOR-EG/AC response” value is 38.5 ± 1.5 s. For the same compound, the “Hill coefficient, mOR-EG/AC response” value in data set [4] (setting [11]) is reported as 0.97. For the same compound, in data set [4] (saturating response parameters), the “decay time 90% to 10%, AC-dependent Ca2+ response” value is 128.2 ± 4.9 s; the “time of peak, AC-dependent Ca2+ response” value amounted to 90.5 ± 4.4 s; the “time to rise 10% to 90%, AC-dependent Ca2+ response” value worked out at 39.4 ± 2.2 s. Besides, in data set [5] (25μM), the “Tdecay, mOR-EG/PLC response” value is 35.0 ± 0.8 s; the “Tpeak, mOR-EG/PLC response” value was found to be 18.6 ± 0.8 s; the “Trise, mOR-EG/PLC response” value turned out to be 10.8 ± 0.9 s. In data set [5] (setting [10]), the “Tdecay, mOR-EG/PLC response” value turned out to be 49.4 ± 1.8 s; the “Tpeak, mOR-EG/PLC response” value was 31.5 ± 0.7 s; the “Trise, mOR-EG/PLC response” value is 8.4 ± 0.3 s. Further, the “Tpeak, mOR-EG/PLC response” value in data set [5] (1mM) was 15.4 ± 0.4 s. Further, the “Ca2+ response on removal of extracellular Ca2+, mOR-EG/Gα15 cells” value in data set [5] (1mM, 5-s pulse) is recorded as “otherwise not affecting the Ca^2+ response”. Further, in [5] (5mM), the “Tdecay, mOR-EG/PLC response” value was found to be 57.9 ± 3.8 s and the “Trise, mOR-EG/PLC response” value was determined as 5.6 ± 0.3 s. Also, the “Hill coefficient, mOR-EG/PLC response” value in data set [5] (setting [11]) is listed as 1.2. Further, in data set [5] (saturating response parameters), the “decay time 90% to 10%, PLC-dependent Ca2+ response” value amounted to 52.6 ± 1.1 s; the “time of peak, PLC-dependent Ca2+ response” value turned out to be 15.4 ± 0.4 s; the “time to rise 10% to 90%, PLC-dependent Ca2+ response” value turned out to be 7.6 ± 0.2 s. Moreover, in [1] (pair-wise comparison of EC50 values), the “functional bias between PLC and AC pathways (in words)” value is given as “activated both pathways with similar EC50 values”. The “Tpeak, mOR-EG/PLC response” value in [6] amounted to 13 ± 0.8 s. The “Ca2+ response in untransfected cells or cells expressing mOR-EG alone” value in [7] (0.5-5mM, n>1000) is “Neither untransfected HEK293T cells nor cells expressing mOR-EG alone were sensitive”. Also, the “Ca2+ response in cells expressing mOR-EG and Gαolf without CNGC-camp” value in [7] (eugenol 0.5-2mM, forskolin 20μM, n>500) is “did not generate noticeable Ca^2+ responses”. Further, in data set [8], the “response kinetics vs mOR-EG responses” value is recorded as “much faster response”. Besides, the “slow Gαs(olf)-dependent response in dual-response cells” value in data set [9] is recorded as “obvious in the signal evoked by eugenol”.
